Laboratory results: patent US12637717B2, “Method for treating and predicting prognosis of gastric cancer patient by calculating RNA expression with logistic regression” (National Yang Ming Chiao Tung University, priority 2022, dated 2026)

Tests used:
Assay type in all cases: cell-based, human
[1] = system: Hs746T; experiment: cell viability of diffuse-type GC cell line Hs746T after inhibitor treatment; conditions: 2.5 μM, 5 μM and 10 μM, triplicate
Description: (§1) The potential tumor antigens (pTAs) expression and signaling pathways were validated in vitro. To validate the association of pTAs with the EMT-like subtype of gastric cancer, the pTAs expression at intestinal-type and diffuse-type GC cell lines were investigated by western blotting. The human GC cell line AGS was obtained from American Type Culture Collection (ATCC) CRL-1739™, and Hs746T was obtained from ATCC HTB-135™, and SNU-1 was obtained from ATCC CRL5971™. Hs746T and SNU-1 were diffuse-type GC cell lines; AGS was an intestinal type GC cell line.
(§2) Therefore, two inhibitors (SB431542 and GDC-0449 (Vismodegib)) were used to validate whether the TGF-β and hedgehog signaling pathways were activated in diffuse-type GC cell lines, respectively. The experiments were performed in triplicate.

[2] = system: SNU-1; experiment: cell viability of diffuse-type GC cell line SNU-1 after inhibitor treatment; conditions: 2.5 μM, 5 μM and 10 μM, triplicate
Description: as §1, §2

[3] = system: AGS; experiment: cell viability of intestinal type GC cell line AGS after inhibitor treatment; conditions: for cell viability (inhibiting effect): 2.5 μM, 5 μM and 10 μM, triplicate
Description: as §1, §2

## CS(=O)(=O)c1ccc(C(=O)Nc2ccc(Cl)c(-c3ccccn3)c2)c(Cl)c1 [GDC-0449, Vismodegib]
[1]
  cell viability: significantly decreased
[2]
  cell viability: significantly decreased
[3]
  cell viability (inhibiting effect): did not have significant effects of inhibiting
[3]; concentrations of 2.5 μM and 5 μM
  effect on proliferation: effects of promoting proliferation

## NC(=O)c1ccc(-c2nc(-c3ccc4c(c3)OCO4)c(-c3ccccn3)[nH]2)cc1 [SB431542]
[1]
  cell viability: significantly decreased
[2]
  cell viability: significantly decreased
[3]
  cell viability (inhibiting effect): did not have significant effects of inhibiting
